Measurements published in US20150093351A1, “MALODOR CONTROL COMPOSITIONS HAVING ACTIVATED ALKENES AND METHODS THEREOF” (The Procter & Gamble Company, priority 2012, published 2015).
Where a name gives a salt, the structure may show the parent alone.

Tests used:
[1] = Vapor-phase butanethiol removal, static headspace GC/MS; details: 1 μL sample in 10 mL vial, 30 minutes room temperature
Method: This example illustrates the malodor removal efficacy of exemplary activated alkenes-catalyst systems in the vapor phase. […] A 1 μL sample of each activated alkene-catalyst combination listed in Table 7 is pipeted into an individual 10 mL silanized headspace vial. The vials are sealed and allowed to equilibrate for at least 12 hours. This procedure is repeated 2 times for each sample. After the equilibration period, 1.5 mL of the target malodor standard vapor is injected into each 10 mL vial. For thiol analysis, the vials containing a sample+malodor standard are held at room temperature for 30 minutes. Then, a 1 mL headspace syringe is then used to inject 250 μL of each sample/malodor into a GC/MS split/splitless inlet. A GC pillow is used for the amine analysis to shorten the run times. Samples are then analyzed using a GC/MS with a DB-5, 20 m, 1 μm film thickness column with an MPS-2 autosampler equipment with static headspace function. Data is analyzed by ion extraction on each total ion current (56 for thiol) and the area is used to calculate the percent reduction from the malodor standard for each sample. Here, the results are reported as % reduction, and higher numbers represent higher reduction in butanethiol concentration.

[2] = Headspace SPME GC/MS malodor removal by aqueous Composition 3 (butanethiol); details: 0.5 wt. % activated alkene in Composition 3, pH 7, no catalyst; 2 hours room temperature, 30 minutes 35° C.; numbers less than 1 = reduced malodor
Method: (§1) All activated alkenes are present in Composition 3 in an amount of 0.5 wt. %, except PEG 400 Dimethylacrylate which is present in Composition 3 in amount of 1.0 wt. %.
(§2) In addition, a Control composition is prepared according to the composition in Table 3, except the activated alkene is omitted. Composition 3 with each activated alkene and the Control composition are then tested for malodor removal performance as described below.
(§3) n-Butanethiol and di-n-propoyl sulfide were chosen as chemical surrogates for sulfur-containing odors such as onion, garlic, sewage, etc. n-Butylamine was used as a representative for amine-containing odors such as fish, pet urine, etc.
(§4) 5 ml of Composition 3 and the Control composition are placed into a separate GC-MS vial and each spiked with 5 microliters of butanthiol or butylamine. The compositions are first equilibrated at room temperature for 2 hours, then incubated at 35° C. for 30 minutes. The headspace of each vial is finally sampled using a polydimethyl siloxane (“PDMS”)/SPME fiber and analyzed by GC/MS. The head space concentrations of odor molecules are measured and the data are normalized to the Control composition.
(§5) Numbers less than 1 denote reduced levels of malodor molecules present in the headspace of Composition 3 relative to the Control composition. The reduced malodor level is attributed to high malodor control efficacy of Composition 3.

[3] = Headspace SPME GC/MS malodor removal by aqueous Composition 3 (butylamine); details: 0.5 wt. % activated alkene in Composition 3, pH 7, no catalyst; 2 hours room temperature, 30 minutes 35° C.; numbers less than 1 = reduced malodor
Method: as §1, §2, §3, §4, §5

[4] = Headspace SPME GC/MS butanethiol removal by aqueous Composition 5 (activated alkene and catalyst); details: for Butanethiol head space concentration normalized to Control, catalyst DBU / Butanethiol head space concentration normalized to Control, catalyst n-hexyl amine / Butanethiol head space concentration normalized to Control, catalyst n-octylamine: Composition 5, 0.5 wt. % activated alkene + catalyst, pH 7; for Butanethiol head space concentration normalized to Control, catalyst DBU: DBU 1:150 molar ratio of catalyst:alkene; for Butanethiol head space concentration normalized to Control, catalyst n-hexyl amine: n-hexyl amine 1:15 molar ratio of catalyst:alkene; for Butanethiol head space concentration normalized to Control, catalyst n-octylamine: n-octylamine 1:15 molar ratio of catalyst:alkene; for Butanethiol head space concentration normalized to Control, No catalyst: Composition 5, 0.5 wt. % activated alkene, pH 7, no catalyst
Method: [Worded in the source for another target; this target is reported under the same test.] as §4

[5] = benchmark values; cited from earlier work

Question: Which “% reduction in butanethiol concentration, 1% w/w DBU” value (“% reduction … 1% w/w DBU” for short) [1] does the source give for “N,N dimethylacrylamide-4- methoxy phenol” here?
Answer: 95.2%

Question: What about the “% reduction in butanethiol concentration, 1% w/w n-hexylamine” value (shortened to “% reduction … 1% w/w n-hexylamine”) [1] of the same molecule?
Answer: 50%

Question: What about the “% reduction in butanethiol concentration, 1% w/w n-octylamine” value (“% reduction … 1% w/w n-octylamine” for short) [1] of the same molecule?
Answer: 22.3%

Question: And the “% reduction in butanethiol concentration, No catalyst” value (“% reduction … No catalyst” below) [1]?
Answer: 28.2%

Question: Which results are given for CCOC(=O)/C=C/C(=O)OCC [Diethyl Fumarate]?
Answer: Butanethiol head space concentration normalized to Control composition, Replicate 1 [2]: 0.4; Butanethiol head space concentration normalized to Control composition, Replicate 2 [2]: 0.3; Butylamine head space concentration normalized to Control composition, Replicate 1 [3]: 0.1; Butylamine head space concentration normalized to Control composition, Replicate 2 [3]: 0.1; Butanethiol head space concentration normalized to Control, catalyst DBU [4]: 0.2; Butanethiol head space concentration normalized to Control, catalyst n-hexyl amine [4]: 0; Butanethiol head space concentration normalized to Control, catalyst n-octylamine [4]: 0; Butanethiol head space concentration normalized to Control, No catalyst [4]: 0.3; % reduction in butanethiol concentration, 1% w/w DBU [1]: 63%; % reduction in butanethiol concentration, 1% w/w n-hexylamine [1]: 3.8%; % reduction in butanethiol concentration, 1% w/w n-octylamine [1]: 11.2%; % reduction in butanethiol concentration, No catalyst [1]: 20.7%

Question: For C/C=C/C(=O)C1C(C)C=CCC1(C)C (stereo not drawn) [Delta Damascone], which “% reduction … 1% w/w DBU” value [1] is on record?
Answer: 99.6%

Question: And the “% reduction … 1% w/w n-hexylamine” value [1]?
Answer: 30.7%

Question: What about the “% reduction … 1% w/w n-octylamine” value [1] of the same molecule?
Answer: 24.4%

Question: And the “% reduction … No catalyst” value [1]?
Answer: 21%

Question: With “hydroxypropyl modified beta cyclodextrin” as the molecule, how does the “ambient temperature water solubility (benchmark)” value [5] read?
Answer: ≥ 60 g/100 ml

Question: With O=C1C=CC(=O)N1c1ccccc1 [n-phenylmaleimide] as the molecule, how does the “% reduction … 1% w/w DBU” value [1] read?
Answer: 10%

Question: What about the “% reduction … 1% w/w n-hexylamine” value [1] of the same molecule?
Answer: 1.5%

Question: And the “% reduction … 1% w/w n-octylamine” value [1]?
Answer: 2.2%

Question: And the “% reduction … No catalyst” value [1]?
Answer: 12.4%

Question: Which “Butanethiol head space concentration normalized to Control composition, Replicate 1” value [2] does the source give for C=CC(=O)N(C)C [N,N Dimethyl Acrylamide] here?
Answer: 0.8

Question: And the “Butanethiol head space concentration normalized to Control composition, Replicate 2” value [2]?
Answer: 0.8

Question: What about the “Butylamine head space concentration normalized to Control composition, Replicate 1” value [3] of the same molecule?
Answer: 1.0

Question: And the “Butylamine head space concentration normalized to Control composition, Replicate 2” value [3]?
Answer: 1.0

Question: And the “Butanethiol head space concentration normalized to Control, catalyst DBU” value [4]?
Answer: 0.3

Question: And the “Butanethiol head space concentration normalized to Control, catalyst n-hexyl amine” value [4]?
Answer: 0.6

Question: And the “Butanethiol head space concentration normalized to Control, catalyst n-octylamine” value [4]?
Answer: 0.7

Question: And the “Butanethiol head space concentration normalized to Control, No catalyst” value [4]?
Answer: 0.8

Question: Which results are given for CCc1occc(=O)c1O [Ethyl Maltol]?
Answer: Butanethiol head space concentration normalized to Control composition, Replicate 1 [2]: 0.8; Butanethiol head space concentration normalized to Control composition, Replicate 2 [2]: 0.9; Butylamine head space concentration normalized to Control composition, Replicate 1 [3]: 0.0; Butylamine head space concentration normalized to Control composition, Replicate 2 [3]: 0.0

Question: Which results are given for C/C=C/C(=O)C1=C(C)C=CCC1(C)C [Damascenone]?
Answer: Butanethiol head space concentration normalized to Control composition, Replicate 1 [2]: 0.6; Butanethiol head space concentration normalized to Control composition, Replicate 2 [2]: 0.7; Butylamine head space concentration normalized to Control composition, Replicate 1 [3]: 1.0; Butylamine head space concentration normalized to Control composition, Replicate 2 [3]: 1.1; Butanethiol head space concentration normalized to Control, catalyst DBU [4]: 0.8; Butanethiol head space concentration normalized to Control, catalyst n-hexyl amine [4]: 0.4; Butanethiol head space concentration normalized to Control, catalyst n-octylamine [4]: 0.6; Butanethiol head space concentration normalized to Control, No catalyst [4]: 0.6

Question: For CCOC(=O)/C=C\C(=O)OCC [Diethyl Maleate], which “Butanethiol head space concentration normalized to Control composition, Replicate 1” value [2] is on record?
Answer: 0.7

Question: What about the “Butanethiol head space concentration normalized to Control composition, Replicate 2” value [2] of the same molecule?
Answer: 0.6

Question: And the “Butylamine head space concentration normalized to Control composition, Replicate 1” value [3]?
Answer: 0.5

Question: What about the “Butylamine head space concentration normalized to Control composition, Replicate 2” value [3] of the same molecule?
Answer: 0.0

Question: What about the “Butanethiol head space concentration normalized to Control, catalyst DBU” value [4] of the same molecule?
Answer: 0.5

Question: What about the “Butanethiol head space concentration normalized to Control, catalyst n-hexyl amine” value [4] of the same molecule?
Answer: 0.1

Question: And the “Butanethiol head space concentration normalized to Control, catalyst n-octylamine” value [4]?
Answer: 0.04

Question: And the “Butanethiol head space concentration normalized to Control, No catalyst” value [4]?
Answer: 0.7

Question: And the “% reduction … 1% w/w DBU” value [1]?
Answer: 44.3%

Question: What about the “% reduction … 1% w/w n-hexylamine” value [1] of the same molecule?
Answer: 13.3%

Question: What about the “% reduction … 1% w/w n-octylamine” value [1] of the same molecule?
Answer: 8.1%

Question: What about the “% reduction … No catalyst” value [1] of the same molecule?
Answer: 24.5%

Question: With C=CC(=O)OCCCCCC [Hexyl Acrylate] as the molecule, how does the “Butanethiol head space concentration normalized to Control composition, Replicate 1” value [2] read?
Answer: 0.1

Question: What about the “Butanethiol head space concentration normalized to Control composition, Replicate 2” value [2] of the same molecule?
Answer: 0.1

Question: And the “Butylamine head space concentration normalized to Control composition, Replicate 1” value [3]?
Answer: 0.6

Question: And the “Butylamine head space concentration normalized to Control composition, Replicate 2” value [3]?
Answer: 0.5

Question: And the “Butanethiol head space concentration normalized to Control, catalyst DBU” value [4]?
Answer: 0.2

Question: What about the “Butanethiol head space concentration normalized to Control, catalyst n-hexyl amine” value [4] of the same molecule?
Answer: 0.02

Question: What about the “Butanethiol head space concentration normalized to Control, catalyst n-octylamine” value [4] of the same molecule?
Answer: 0

Question: What about the “Butanethiol head space concentration normalized to Control, No catalyst” value [4] of the same molecule?
Answer: 0.1

Question: What about the “% reduction … 1% w/w DBU” value [1] of the same molecule?
Answer: 23.1%

Question: And the “% reduction … 1% w/w n-hexylamine” value [1]?
Answer: 11.2%

Question: And the “% reduction … 1% w/w n-octylamine” value [1]?
Answer: 21%

Question: And the “% reduction … No catalyst” value [1]?
Answer: 31.9%

Question: For OC[C@H]1O[C@@H]2O[C@H]3[C@H](O)[C@@H](O)[C@@H](O[C@H]4[C@H](O)[C@@H](O)[C@@H](O[C@H]5[C@H](O)[C@@H](O)[C@@H](O[C@H]6[C@H](O)[C@@H](O)[C@@H](O[C@H]7[C@H](O)[C@@H](O)[C@@H](O[C@H]8[C@H](O)[C@@H](O)[C@@H](O[C@H]1[C@H](O)[C@H]2O)O[C@@H]8CO)O[C@@H]7CO)O[C@@H]6CO)O[C@@H]5CO)O[C@@H]4CO)O[C@@H]3CO [beta-cyclodextrin], which “ambient temperature water solubility (benchmark)” value [5] is on record?
Answer: 1.8 g/100 ml

Question: With CC(C)=CCCC(C)=CC=O [Citral] as the molecule, how does the “Butanethiol head space concentration normalized to Control composition, Replicate 1” value [2] read?
Answer: 0.1

Question: And the “Butanethiol head space concentration normalized to Control composition, Replicate 2” value [2]?
Answer: 0.1

Question: And the “Butylamine head space concentration normalized to Control composition, Replicate 1” value [3]?
Answer: 0.0

Question: What about the “Butylamine head space concentration normalized to Control composition, Replicate 2” value [3] of the same molecule?
Answer: 0.0

Question: Which “Butanethiol head space concentration normalized to Control composition, Replicate 1” value [2] does the source give for O=C1C=CC(=O)N1C1CCCCC1 [N-Cyclohexylmaleimide] here?
Answer: 0.0

Question: And the “Butanethiol head space concentration normalized to Control composition, Replicate 2” value [2]?
Answer: 0.0

Question: And the “Butylamine head space concentration normalized to Control composition, Replicate 1” value [3]?
Answer: 0.0

Question: What about the “Butylamine head space concentration normalized to Control composition, Replicate 2” value [3] of the same molecule?
Answer: 0.0
